{
  "source": "patent US9056111B1",
  "about": "“Selective efflux inhibitors and related pharmaceutical compositions and methods of treatment” (STC.UNM, priority 2011, dated 2015)",
  "key": {"ABCB1 / ABCG2": {"molecular_target": "T1, ABCB1 / ABCG2 (Homo sapiens, UniProt Q9UNQ0)", "T1 sequence (Q9UNQ0 1-655)": "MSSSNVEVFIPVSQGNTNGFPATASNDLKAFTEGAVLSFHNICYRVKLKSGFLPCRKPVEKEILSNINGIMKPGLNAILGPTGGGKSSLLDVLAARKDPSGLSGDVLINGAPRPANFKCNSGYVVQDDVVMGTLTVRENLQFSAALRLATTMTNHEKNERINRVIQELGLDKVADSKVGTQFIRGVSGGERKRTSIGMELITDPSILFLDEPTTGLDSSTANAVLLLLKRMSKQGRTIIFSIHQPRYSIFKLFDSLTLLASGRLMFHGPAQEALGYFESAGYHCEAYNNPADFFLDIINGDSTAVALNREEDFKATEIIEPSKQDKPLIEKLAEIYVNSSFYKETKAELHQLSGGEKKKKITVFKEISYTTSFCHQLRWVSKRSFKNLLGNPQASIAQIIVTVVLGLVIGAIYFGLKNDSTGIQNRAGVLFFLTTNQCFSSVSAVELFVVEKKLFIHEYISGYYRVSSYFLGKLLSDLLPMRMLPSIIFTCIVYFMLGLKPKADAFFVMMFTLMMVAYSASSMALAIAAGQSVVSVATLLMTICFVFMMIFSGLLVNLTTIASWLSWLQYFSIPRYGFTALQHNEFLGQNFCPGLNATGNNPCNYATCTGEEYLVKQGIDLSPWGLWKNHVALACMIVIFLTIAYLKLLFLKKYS", "test": "JC-1 efflux inhibition dose response, flow cytometry, Ig-MXP3 cells", "details": "human, probe JC-1 (1 µM), ~Fold G2 Selective (B1/G2), quotient of average ABCB1 IC50 and average ABCG2 IC50, efflux assay", "outline": "(§1)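 Ig-MXP3 (ABCG2) and Jurkat-DNR (ABCB1) cells, run separately, are pre-stained with 1 μM JC-1 and added to compound in PBS; retained dye is read by high-throughput flow cytometry with time-gated analysis.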"}, "ABCG2": {"molecular_target": "T2, ABCG2 (Homo sapiens, UniProt Q9UNQ0)", "T2 sequence (Q9UNQ0 1-655)": "T1 sequence (Q9UNQ0 1-655)", "test": "JC-1 efflux inhibition dose response, flow cytometry, Ig-MXP3 cells", "outline": "as §1"}, "[1]": {"test": "Aqueous solubility in PBS", "type": "physicochemical", "details": "phosphate buffered saline (PBS), aqueous buffer; PBS pH 7.4, room temperature (23° C.)", "protocol": "PBS by definition is 137 mMNaCl, 2.7 mMKCl, 10 mM sodium phosphate dibasic, 2 mM potassium phosphate monobasic and a pH of 7.4."}, "[2]": {"test": "Aqueous stability in PBS at room temperature", "type": "physicochemical", "protocol": "Aqueous stability was measured at room temperature (23° C.) in PBS (no antioxidants or other protectants and DMSO concentration below 0.1%). The stability of SID 88095709, determined as the percent of compound remaining after 48 hours, was 10%.^64Stability data are depicted as a graph showing the loss of compound with time over a 48 hour period with a minimum of 6 time points and provide the percent remaining compound at end of the 48 hours (FIG. 3, closed circles).\nThe stability data under these conditions overlain in the FIG. 3 and is also depicted as a graph showing the loss of compound with time over a 48 hour period with a minimum of 6 time points and provide the percent remaining compound at end of the 48 hours (FIG. 3, closed triangles). The addition of acetonitrile appears to have solubilized the compound and provided a more accurate reading of the stability, which is now 100% remaining after 48 hours."}, "50 kinases": {"molecular_target": "50 kinases", "test": "Kinase profiling (KinaseSeeker, split-luciferase)", "type": "biochemical", "details": "10 μM", "protocol": "Since ABC transporters are ATP dependent efflux pumps and several kinase targets have been implicated in the patent literature with structurally similar scaffolds, SID 88095709 was profiled against 50 kinasesat a single concentration of 10 μM to assess promiscuity of the chemotype.^66 SID 88095709 was dissolved in DMSO and tested at a final concentration of 10 μM. Prior to initiating a profiling campaign, the compound was evaluated for false positive against split-luciferase. Profiling was done in duplicate for SID 88095709 against each kinase. The Percent Inhibition and Percent Activity Remaining arecalculated using the following equation: % Inhibition=ALUControl−ALUSample×100 ALUControl % Activity Remaining=100−% Inhibition The team has also submitted SID 88095709 and the analog SID 97301789 to the NIH National Cancer Institute to elucidate the effect of SID 88095709 on the cancer cell line panel. Discussion"}, "Ig-MXP3 cells": {"system": "Ig-MXP3 cells", "test": "Direct cytotoxicity (Toxic Dose 50) without chemotherapeutic", "type": "cell-based", "details": "Ig-MXP3 cells, inhibitor without chemotherapeutic"}, "[3]": {"test": "Flow cytometric kinetic solubility", "type": "physicochemical", "details": "kinetic from dmso stock", "text": "Applying a flow cytometrickinetic solubility protocol,^65 we were also able to compare solubility across primary, secondary, and profiling buffer conditions in house. […] This is approximately three fold higher than reported above; however, our protocol uses 1% DMSO as compared to 0.1%. […] The presence of fetal bovine serum also affects compound availability and in the primary assay screening buffer (6.7% FBS in PBS, 1% DSMO) the precipitation was inhibited slightly with no particulate noted at 3 μg/mL. […] In general, we are confident that compound availability is sufficient for the concentration ranges discussed for this scaffold set in our described biological systems."}},
  "note": "Like-named read-outs stand apart in the source and are kept apart here.",
  "data": [
    {"smiles": "O=C(c1ccoc1)N1CCN(c2cc(-c3ccco3)nc3cc(-c4ccccc4)nn23)CC1", "note": "[Compound 1, (4-(5-(furan-2-yl)-2-phenylpyrazolo[1,5-a]pyrimidin-7-yl)piperazin-1-yl)(furan-3-yl)methanone]", "values": [
      {"measurement": "selectivity ratio at 30 min", "setting": "ABCB1 / ABCG2", "value": 36},
      {"measurement": "EC50", "setting": "ABCG2", "value": 130, "unit": "nM"},
      {"measurement": "IC50", "setting": "ABCG2", "value": "130 ± 300", "unit": "nM"},
      {"measurement": "fold higher potency in ABCG2 than the prior art Ko143", "setting": "ABCG2; JC-1 efflux reporter system", "value": "approximately 100 fold"},
      {"measurement": "~Fold G2 Selective (B1/G2)", "setting": "ABCG2; quotient of average ABCB1 IC50 and average ABCG2 IC50, efflux assay", "value": 35.8, "unit": "fold"},
      {"measurement": "solubility", "setting": "[1]", "value": 0.51, "unit": "µg/mL"},
      {"measurement": "Aqueous stability, percent of compound remaining after 48 hours", "setting": "[2]; PBS alone, 23° C., DMSO below 0.1%", "value": 10, "unit": "%"},
      {"measurement": "Aqueous stability, percent remaining after 48 hours", "setting": "[2]; PBS with acetonitrile (50% v/v final)", "value": 100, "unit": "%"},
      {"measurement": "kinase inhibition profile", "setting": "50 kinases", "value": "appears to not be a kinase inhibitor"},
      {"measurement": "TD50 ABCG2", "setting": "Ig-MXP3 cells", "value": 18.30, "unit": "µM"},
      {"measurement": "TD50 ABCG2", "setting": "Ig-MXP3 cells; listed as SID 88095709", "value": 18.3, "unit": "µM"},
      {"measurement": "solubility kinetic", "setting": "[3]; PBS with 1% DMSO, pH 7.4, aqueous buffer, PBS alone, 1% DMSO, read-out: kinetic solubility", "value": 2, "unit": "µg/mL"},
      {"measurement": "solubility kinetic", "setting": "[3]; growth media (RPMI with 10% FBS, 1% DMSO), plasma or biological fluid, read-out: kinetic solubility, no precipitate forming at", "value": "≥ 6", "unit": "µg/mL"},
      {"measurement": "solubility kinetic", "setting": "[3]; primary assay screening buffer (6.7% FBS in PBS, 1% DMSO), plasma or biological fluid, read-out: kinetic solubility, no particulate noted at", "value": "≥ 3", "unit": "µg/mL"}
    ]}
  ]
}
